Laboratory results: US20080145313A1, “Compositions and Methods for the Treatment and Prevention of Neoplastic Disorders” (Genesis Research & Development Corporation Limited, priority 2006, published 2008)

System: target transcript mRNA in A549 cells
Assay: Level of mRNA of target transcript in A549 cells by quantitative RT-PCR (Tables 12 and 13)
Format: cell-based, human
Conditions: 24 h post-transfection; for mRNA knockdown of energy and metabolism gene target transcript, 0.1 nM: 0.1 nM siRNA; for mRNA knockdown of energy and metabolism gene target transcript, 1 nM: 1 nM siRNA; for mRNA knockdown of energy and metabolism gene target transcript, 10 nM: 10 nM siRNA
Protocol: A549 cells were transfected as described before with 0.1, 1.0 and 10 nM siRNA as listed in Tables 10 and 11 and the relative mRNA levels quantified 24 h post-transfection. RNA was purified from cells using Trizol® extraction as per the manufacturer's protocol (Invitrogen). cDNA was prepared by digesting approximately 200 ng purified RNA with DNAse I (Invitrogen) for 15 minutes at room temperature, followed by 15 minutes at 65° C. in the presence of 25 mM EDTA. 30 ng random primers were added and incubated for 10 minutes at 65° C., 1 minute on ice; Superscript® III polymerase (Invitrogen) was added in presence of 5 nM DTT (Invitrogen) and 1 mM deoxyribonucleotides (Invitrogen), and the reaction incubated at 25° C. for 5 minutes, followed by an hour at 50° C. cDNA was diluted 1:3 in 10 mM Tris pH 7.0, and quantitative RT-PCR carried out on an ABI Prism 7900HT (Applied Biosciences, Inc., Foster City, Calif.) using FastStart TaqMan SYBRGreen (Roche, Basel, Switzerland) or Platinum SYBR Green (Invitrogen) and 360 nM of the primers specific for gene targets and housekeeping genes HPRT and Lamin. Reduction in target mRNA levels following siRNA transfection are given in Tables 12 and 13, together with the gene specific primer sequences. Primer sequences used for the housekeeping genes HPRT and Lamin are given in SEQ ID NO: 4885-4888.

Row | Substance | mRNA knockdown of energy and metabolism gene target transcript, 0.1 nM | mRNA knockdown of energy and metabolism gene target transcript, 1 nM | mRNA knockdown of energy and metabolism gene target transcript, 10 nM
1 | 1700 (CAAGAACGTGAAGCTCCCTGACGCCTA; chemistry not given here) [compound 1700] | + (50-70% mRNA knockdown) | ++ (70-90% mRNA knockdown) | 
2 | 3557 (CTACGGATGTTGGGATCATTATTA; chemistry not given here) [compound 3557] | ++ (70-90% mRNA knockdown) | ++ (70-90% mRNA knockdown) | 
3 | 3533 (AGATTGGAAGCCACCACATCAGTCTCAACA; chemistry not given here) [compound 3533] | − (<50% mRNA knockdown) | ++ (70-90% mRNA knockdown) | 
4 | 1690 (TGCCAACAGGATCTTCGGCCCCATCTG; chemistry not given here) [compound 1690] | ++ (70-90% mRNA knockdown) | ++ (70-90% mRNA knockdown) | 
5 | 3576 (AAGCGGTTTTTCTCCAAGTACTC; chemistry not given here) [compound 3576] | +++ (>90% mRNA knockdown) | +++ (>90% mRNA knockdown) | 
6 | 3538 (CCAAGGGTAGGAGCCCTACACTAGG; chemistry not given here) [compound 3538] | ++ (70-90% mRNA knockdown) | ++ (70-90% mRNA knockdown) | +++ (>90% mRNA knockdown)
7 | 3563 (ATGCGGCTACGGATGTTGGGATCATTATTA; chemistry not given here) [compound 3563] | ++ (70-90% mRNA knockdown) | +++ (>90% mRNA knockdown) | 
8 | 3572 (GGTCACCAGCAAGAACGGTGGGATTTACT; chemistry not given here) [compound 3572] | + (50-70% mRNA knockdown) | ++ (70-90% mRNA knockdown) | 
9 | 1695 (ACGTGAAGCTCCCTGACGCCTA; chemistry not given here) [compound 1695] | ++ (70-90% mRNA knockdown) | ++ (70-90% mRNA knockdown) | 
10 | 3577 (GAAGCGGTTTTTCTCCAAGTACTC; chemistry not given here) [compound 3577] | ++ (70-90% mRNA knockdown) | +++ (>90% mRNA knockdown) | 
11 | 3535 (AGGGTAGGAGCCCTACACTAGG; chemistry not given here) [compound 3535] | ++ (70-90% mRNA knockdown) | +++ (>90% mRNA knockdown) | 
12 | 3559 (GGCTACGGATGTTGGGATCATTATTA; chemistry not given here) [compound 3559] | ++ (70-90% mRNA knockdown) | ++ (70-90% mRNA knockdown) | 
13 | 3537 (CAAGGGTAGGAGCCCTACACTAGG; chemistry not given here) [compound 3537] | ++ (70-90% mRNA knockdown) | +++ (>90% mRNA knockdown) | +++ (>90% mRNA knockdown)
14 | 3595 (ACAGGAAGATCCTGCTCATCAG; chemistry not given here) [compound 3595] | + (50-70% mRNA knockdown) | ++ (70-90% mRNA knockdown) | 
15 | 1693 (ATTTGCCAACAGGATCTTCGGCCCCATCTG; chemistry not given here) [compound 1693] | − (<50% mRNA knockdown) | − (<50% mRNA knockdown) | 
16 | 3561 (GCGGCTACGGATGTTGGGATCATTATTA; chemistry not given here) [compound 3561] | + (50-70% mRNA knockdown) | ++ (70-90% mRNA knockdown) | 

Row | Substance | mRNA knockdown of energy and metabolism gene target transcript, 0.1 nM | mRNA knockdown of energy and metabolism gene target transcript, 1 nM | mRNA knockdown of energy and metabolism gene target transcript, 10 nM
17 | 1699 (AAGAACGTGAAGCTCCCTGACGCCTA; chemistry not given here) [compound 1699] | − (<50% mRNA knockdown) | ++ (70-90% mRNA knockdown) | 
18 | 3542 (GGAGCCAAGGGTAGGAGCCCTACACTAGG; chemistry not given here) [compound 3542] | + (50-70% mRNA knockdown) | ++ (70-90% mRNA knockdown) | 
19 | 1691 (TTGCCAACAGGATCTTCGGCCCCATCTG; chemistry not given here) [compound 1691] | − (<50% mRNA knockdown) | ++ (70-90% mRNA knockdown) | 
20 | 3573 (TGGTCACCAGCAAGAACGGTGGGATTTACT; chemistry not given here) [compound 3573] | ++ (70-90% mRNA knockdown) | +++ (>90% mRNA knockdown) | 
21 | 3541 (GAGCCAAGGGTAGGAGCCCTACACTAGG; chemistry not given here) [compound 3541] | − (<50% mRNA knockdown) | − (<50% mRNA knockdown) | − (<50% mRNA knockdown)
22 | 3556 (TACGGATGTTGGGATCATTATTA; chemistry not given here) [compound 3556] | ++ (70-90% mRNA knockdown) | ++ (70-90% mRNA knockdown) | 
23 | 3565 (AGCAAGAACGGTGGGATTTACT; chemistry not given here) [compound 3565] | ++ (70-90% mRNA knockdown) | +++ (>90% mRNA knockdown) | 
24 | 1696 (AACGTGAAGCTCCCTGACGCCTA; chemistry not given here) [compound 1696] | − (<50% mRNA knockdown) | − (<50% mRNA knockdown) | 
25 | 3575 (AGCGGTTTTTCTCCAAGTACTC; chemistry not given here) [compound 3575] | +++ (>90% mRNA knockdown) | +++ (>90% mRNA knockdown) | 
26 | 1694 (CGTGAAGCTCCCTGACGCCTA; chemistry not given here) [compound 1694] | − (<50% mRNA knockdown) | − (<50% mRNA knockdown) | 
27 | 3578 (TGAAGCGGTTTTTCTCCAAGTACTC; chemistry not given here) [compound 3578] | + (50-70% mRNA knockdown) | ++ (70-90% mRNA knockdown) | 
28 | 3586 (AAACAGAGGAGCAAGATACAGGC; chemistry not given here) [compound 3586] | ++ (70-90% mRNA knockdown) | +++ (>90% mRNA knockdown) | 
29 | 1698 (AGAACGTGAAGCTCCCTGACGCCTA; chemistry not given here) [compound 1698] | + (50-70% mRNA knockdown) | + (50-70% mRNA knockdown) | 
30 | 3551 (AAGGCAACTACCGCGAGCTGCGCTGGTT; chemistry not given here) [compound 3551] | ++ (70-90% mRNA knockdown) | − (<50% mRNA knockdown) | 
31 | 3549 (GGCAACTACCGCGAGCTGCGCTGGTT; chemistry not given here) [compound 3549] | + (50-70% mRNA knockdown) | +++ (>90% mRNA knockdown) | ++ (70-90% mRNA knockdown)
